Assay results as given in patent US12329823B2 (The Scripps Research Institute, priority 2021, dated 2025).
Like-named read-outs stand apart in the source and are kept apart here.

Assays:
dog GIPR = target: T1, dog GIPR (Canis lupus familiaris, UniProt A0A8I3MPG1); experiment: In vitro potency, dog GIPR activation (receptor-mediated cAMP synthesis); type: cell-based
T1 sequence (A0A8I3MPG1 24-449): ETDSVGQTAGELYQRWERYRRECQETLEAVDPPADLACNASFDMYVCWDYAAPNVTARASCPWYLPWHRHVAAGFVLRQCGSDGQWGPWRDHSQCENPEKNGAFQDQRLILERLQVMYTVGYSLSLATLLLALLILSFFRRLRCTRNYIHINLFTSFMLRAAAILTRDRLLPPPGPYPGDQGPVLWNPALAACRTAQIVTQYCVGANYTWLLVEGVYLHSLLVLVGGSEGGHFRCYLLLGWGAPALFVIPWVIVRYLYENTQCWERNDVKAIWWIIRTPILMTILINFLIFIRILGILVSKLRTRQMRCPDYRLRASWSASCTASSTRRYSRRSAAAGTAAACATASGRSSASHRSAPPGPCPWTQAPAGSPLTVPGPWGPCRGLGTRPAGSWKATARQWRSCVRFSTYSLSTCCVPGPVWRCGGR
Experimental: GLP-1R-CRE or HEK293-GIPR-CRE cells were seeded in 384-well plates at a density of 5000 cells per well and cultured for 18 h in DMEM with 10% FBS at 37° C. and 5% CO2. Cells were treated with peptides in a dose dependent manner for 24 h, and receptor activation was reported by luminescence intensities, using One-Glo (Promega, WI) luciferase reagent following manufacturer's instruction. The EC50 of each peptide was determined using GraphPad Prism 6 software (GraphPad, San Diego, CA). Results are depicted in FIGS. 6A-6B, FIGS. 7A-7B, FIGS. 8A-8B, FIGS. 9A-9B, and Tables 7-12. Measurements of peptide conjugate potency were expressed as half maximal effective concentration (EC50) values.

cynomolgous monkey GIPR = experiment: In vitro potency, cynomolgous monkey GIPR activation (receptor-mediated cAMP synthesis); type: cell-based; conditions: Table 12; read-out: In Vitro Potency GIPR EC50, Cyno
[1] = Plasma stability, 24 h incubation in mouse plasma (LC-MS); type: in vitro ADME
Experimental: (§1) To investigate the stability of the conjugates in mouse, cyno monkey, dog, and human plasma, conjugate mCMD307 was incubated in plasma for 24 h (Table 13). At certain time intervals a sample of plasma was taken and plasma proteins precipitated. Samples were analyzed using LC-MS.

in vitro [2] = type: in vitro ADME, cyno monkey; conditions: monkey, plasma
Experimental: as §1

[3] = type: in vivo, mouse
Experimental: […]. Peptide dissolved in PBS (pH 8.2) was administered via i.v. or s.c. route into CD1 mice ([…]). Blood samples were collected at the indicated time points and analyzed by in vitro GLP-1R activity assay. The assay was performed in triplicate. Pharmacokinetic analyses were determined by noncompartmental analysis with WinNonLin.
[…]. It is also noteworthy that although our focus for half-life extension was on the serum-binding ability of the stapled peptide, there may be a combination of effects, for example self-assembly and depoting at the injection site, that led to the delayed onset of Cmax and the extended half-life.
CHOK1 cells stably overexpressed human GLP-1R or GIPR (20 μL of 5000 cells per well) were seeded in a white solid 384 well plate covered with metal lid and incubated overnight. On day 2, the culture medium was replaced by fresh medium containing no FBS (for 0% FBS group). Cells were treated with 5 μL peptide in 12-point dose response, in culture medium with 0.5 mM IBMX in triplicate for 30 min at 37° C., 5% CO2. cAMP dynamic 2 kit from Cisbio was used to detect cAMP level. Briefly, 25 μL of cAMP detection reagent (1:1:38 of cAMP-d2, Cryptate conjugate, lysis buffer) per well was added and incubated at room temperature for 1 h. For cell negative control wells, cAMP detection reagent without d2 was added. […] Animals Animal care and experimental procedures were approved by the Institutional Animal Care and Use Committee (IACUC) of Calibr at the Scripps Research Institute, strictly following the NIH guidelines for humane treatment of animals. Pharmacokinetics of peptides in mice Female CD-1 mice (n=4 per group) from Charles River Laboratory were fasted overnight and administered 100 μL of each peptide in phosphate buffered saline by intravenous (i.v.) or subcutaneous (s.c.) route. Food was provided to mice after blood collection at 3 h time point. Blood was collected into heparin tubes and centrifuged at 3,000×g for 15 min. The resulting plasma were then stored at −80° C. for peptide concentration determination. The concentrations of peptides in plasma at each time point were determined by in vitro cell based activity assay. Briefly, HEK293-GLP-1R-CRE cells were treated with plasma samples at different time points (5-point dose response, starting from 1:10 to 1:100 dilution of each plasma sample) and incubated for 16 h in DMEM with 10% FBS at 37° C. with 5% CO2, and the firefly luciferase activity was then measured. Simultaneously, the same peptides were used to obtain standard curves and parameters for Bottom, Top, EC50, and Hill Slope. Relative luciferase unit (RLU) for each plasma sample was used to calculate the peptide concentrations in plasma (nmol/L), using parameters derived from the standard curve: (RLU=Bottom+(Top−Bottom)/(1+10^(Log EC50−Conc.)×Hill Slope)) Peptide concentrations in plasma were obtained and plotted against time points to obtain in vivo half-life of each peptide, using WinNonLin Phoenix software (Pharsight Corp, St. Louis, MO). Oral glucose tolerance test (OGTT) Female Charles River CD-1 mice were fasted overnight and then administrated 150 μL of each peptide in PBS (pH=8.2) by i.v. or s.c. route. […]. Body weight and food intake were monitored daily throughout the study. At the end of the experiment, mice were sacrificed, and visceral fat mass was weighed. Collected plasma was used for cholesterol level determination according to the manufacturer's guide (cholesterol assay kit, Abcam, Cambridge, England) and triglyceride level using a triglyceride colorimetric assay kit (Cayman chemical, Ann Arbor, Michigan). Oil red staining Frozen tissue sections of liver were cut at 10 μm and air dried onto the slides. After fixation in 10% formalin for 5 min, the slides were briefly washed with running tap water for 10 min, followed by rinsing with 60% isopropanol. Subsequently, oil red 0 working solution (0.3% oil red 0) was used to stain lipid for 15 min. […]

in vitro [4] = type: in vitro ADME; conditions: plasma
Experimental: as §1

[5] = Acute oral glucose tolerance test (OGTT) in wild-type mice, 2 h and 96 h post injection; type: in vivo, mouse; conditions: 96 h after administration; 10 nmol/kg s.c.
human GIPR [6] = target: T2, human GIPR (Homo sapiens, UniProt P48546); experiment: In vitro receptor activation reporter assay (CRE-Luc, HEK293-GIPR-CRE cells; receptor-mediated cAMP synthesis); type: cell-based
T2 construct: expressed in transfected cells; host or cells: HEK293 (CRE-HEK293, HEK293-GIPR-CRE)
T2 sequence (P48546 22-466): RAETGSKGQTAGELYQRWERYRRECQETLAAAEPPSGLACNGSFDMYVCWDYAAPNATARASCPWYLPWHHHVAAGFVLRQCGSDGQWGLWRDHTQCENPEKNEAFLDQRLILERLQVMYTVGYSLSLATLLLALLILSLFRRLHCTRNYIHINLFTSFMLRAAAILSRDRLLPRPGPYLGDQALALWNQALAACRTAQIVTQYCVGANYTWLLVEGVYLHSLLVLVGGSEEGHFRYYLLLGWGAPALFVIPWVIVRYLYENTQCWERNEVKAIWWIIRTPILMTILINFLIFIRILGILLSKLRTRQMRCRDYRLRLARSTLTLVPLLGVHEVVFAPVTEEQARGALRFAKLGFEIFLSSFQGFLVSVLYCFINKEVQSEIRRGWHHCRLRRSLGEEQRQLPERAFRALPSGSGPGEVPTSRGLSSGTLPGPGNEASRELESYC
Experimental: (§2) HEK293 cells were infected with lentivirus encoding firefly luciferase gene under the control of cAMP responsive element (CRE) promoter (Qiagen, The Netherlands) and then were selected using 1 μg mL^−1 puromycin (Life Technologies, Carlsbad) for 1 week. The surviving cells (referred to as CRE-HEK293) were expanded and then transfected with a G418 selective mammalian expression plasmid encoding human GLP-1R or GIPR. In brief, GLP-1R or GIPR plasmid was transfected into CRE-HEK293 cells using Lipofectamine 2000 and selected with 400 μg mL^−1 Geneticin (Life Technologies, Carlsbad, CA). Single colony stable cell line overexpressing CRE-luciferase and GLP-1R or GIPR (HEK293-GLP-1R-CRE or HEK293-GIPR-CRE) was then established for in vitro activity assay.

human GLP-1R [7] = target: T3, human GLP-1R (Homo sapiens, UniProt P43220); experiment: In vitro receptor activation reporter assay (CRE-Luc, HEK293-GLP-1R-CRE cells; receptor-mediated cAMP synthesis); type: cell-based; design: expressed in transfected cells; host or cells: HEK293 (CRE-HEK293, HEK293-GLP-1R-CRE); conditions: read-out: EC50 GLP1R
Experimental: as §2
HEK293 cells were infected with lentivirus encoding firefly luciferase gene under the control of cAMP responsive element (CRE) promoter (Qiagen, The Netherlands) and then were selected using 1 μg/mL puromycin (Life Technologies, Carlsbad) for 1 week. The surviving cells (referred to as CRE-HEK293) were expanded and then transfected with a G418 selective mammalian expression plasmid encoding human GLP-1R. In brief, GLP-1R plasmid was transfected into CRE-HEK293 cells using Lipofectamine 2000 and selected with 400 μg/mL Geneticin (Life Technologies, Carlsbad, CA). Single colony stable cell line overexpressing CRE-luciferase and GLP1R was then established for in vitro activity assay.

[8] = High-fat-diet-induced obesity (DIO) mouse model, chronic administration; type: in vivo; conditions: DIO mice
[9] = In vivo oral glucose tolerance test (OGTT) 12 h after a single S.C. dose; design: species or system mouse; conditions: 10 nmol/kg S.C.; 12 h before glucose
Experimental: Mice were fasted overnight prior to the oral glucose tolerance test (OGTT), and then dosed with peptide. After 12 h, 1 g of glucose solution per kg body weight was administered orally, and mouse tail blood glucose levels were measured before (0 min) and after glucose challenge for 90 minutes (with measurements at 15, 30, 60 and 90 minutes) (FIG. 16). The data were compared using the unpaired Student's t test. Where appropriate, data were compared using repeated measures or one-way analysis of variance, followed by the Student-Newman-Keuls post hoc test. Calculations for […] (mg/dL*min) were also analyzed and graphed in FIG. 16. […]. […].

human GLP-1R [10] = target: T3, human GLP-1R; conditions: literature, in words; cited from earlier work
human GIPR [11] = target: T2, human GIPR; conditions: literature, in words; cited from earlier work

T3 sequence (P43220 24-463): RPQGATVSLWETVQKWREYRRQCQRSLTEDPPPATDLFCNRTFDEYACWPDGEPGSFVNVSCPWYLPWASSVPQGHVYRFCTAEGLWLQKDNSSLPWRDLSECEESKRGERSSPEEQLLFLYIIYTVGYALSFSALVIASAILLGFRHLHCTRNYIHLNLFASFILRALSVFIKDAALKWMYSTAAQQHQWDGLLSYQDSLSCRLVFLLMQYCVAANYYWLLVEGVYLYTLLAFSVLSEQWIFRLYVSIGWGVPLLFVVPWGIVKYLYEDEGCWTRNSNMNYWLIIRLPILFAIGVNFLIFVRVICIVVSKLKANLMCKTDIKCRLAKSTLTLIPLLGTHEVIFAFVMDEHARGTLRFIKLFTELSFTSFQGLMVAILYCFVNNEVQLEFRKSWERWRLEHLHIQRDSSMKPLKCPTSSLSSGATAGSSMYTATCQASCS

CC[C@H](C)[C@H](NC(=O)[C@H](CO)NC(=O)[C@H](Cc1ccc(O)cc1)NC(=O)[C@H](CC(=O)O)NC(=O)[C@H](CO)NC(=O)[C@@H](NC(=O)[C@H](Cc1ccccc1)NC(=O)[C@@H](NC(=O)CNC(=O)[C@H](CCC(=O)O)NC(=O)[C@H](C)NC(=O)[C@@H](N)Cc1ccc(O)cc1)[C@@H](C)O)[C@@H](C)CC)C(=O)N[C@@H](C)C(=O)N[C@@H](CCSC)C(=O)N[C@@H](CC(=O)O)C(=O)N[C@@H](CCCCN)C(=O)N[C@H](C(=O)N[C@@H](Cc1c[nH]cn1)C(=O)N[C@@H](CCC(N)=O)C(=O)N[C@@H](CCC(N)=O)C(=O)N[C@@H](CC(=O)O)C(=O)N[C@@H](Cc1ccccc1)C(=O)N[C@H](C(=O)N[C@@H](CC(N)=O)C(=O)N[C@@H](Cc1c[nH]c2ccccc12)C(=O)N[C@@H](CC(C)C)C(=O)N[C@@H](CC(C)C)C(=O)N[C@@H](C)C(=O)N[C@@H](CCC(N)=O)C(=O)N[C@@H](CCCCN)C(=O)NCC(=O)N[C@@H](CCCCN)C(=O)N[C@@H](CCCCN)C(=O)N[C@@H](CC(N)=O)C(=O)N[C@@H](CC(=O)O)C(=O)N[C@@H](Cc1c[nH]c2ccccc12)C(=O)N[C@@H](CCCCN)C(=O)N[C@@H](Cc1c[nH]cn1)C(=O)N[C@@H](CC(N)=O)C(=O)N[C@H](C(=O)N[C@H](C(=O)N[C@@H](CCC(N)=O)C(=O)O)[C@@H](C)O)[C@@H](C)CC)C(C)C)[C@@H](C)CC [hGIP, reference compound]
EC50 (dog GIPR): 700 pM | EC50 (cynomolgous monkey GIPR): 690 pM

CC[C@H](C)[C@H](NC(=O)[C@H](CO)NC(=O)[C@H](Cc1ccc(O)cc1)NC(=O)[C@H](CC(=O)O)NC(=O)[C@H](CO)NC(=O)[C@@H](NC(=O)[C@H](Cc1ccccc1)NC(=O)[C@@H](NC(=O)CNC(=O)[C@H](CCC(=O)O)NC(=O)C(C)(C)NC(=O)[C@@H](N)Cc1ccc(O)cc1)[C@@H](C)O)[C@@H](C)O)C(=O)N[C@@H](Cc1ccc(O)cc1)C(=O)N[C@H]1CCCCNC(=O)CN(C(=O)CCNC(=O)CCOCCOCCOCCNC(=O)CCCCCCCCCCCCCCCCC(=O)O)CC(=O)NCCCC[C@@H](C(=O)N[C@@H](Cc2ccccc2)C(=O)N[C@H](C(=O)N[C@@H](CC(N)=O)C(=O)N[C@@H](Cc2c[nH]c3ccccc23)C(=O)N[C@@H](CC(C)C)C(=O)N[C@@H](CC(C)C)C(=O)N[C@@H](C)C(=O)NCC(=O)NCC(=O)N2CCC[C@H]2C(=O)N[C@@H](CO)C(=O)N[C@@H](CO)C(=O)NCC(=O)N[C@@H](C)C(=O)N2CCC[C@H]2C(=O)N2CCC[C@H]2C(=O)N2CCC[C@H]2C(=O)N[C@@H](CO)C(N)=O)C(C)C)NC(=O)C(C)(C)NC(=O)[C@H](C)NC(=O)[C@H](C)NC(=O)[C@H](CCC(N)=O)NC(=O)[C@H](CCCCN)NC(=O)[C@H](CC(=O)O)NC1=O [mCMD307, YAibEGT-FTSDY-SIYXD-KQAAAib-XFVNW-LLAGG-PSSGA-PPPS-NH2 (where each X is K) (SEQ ID NO: 39)]
remaining at 24 h [1]: 53% | remaining at 24 h (in vitro [2]): 87% | AUC0-last ([3]; Table 6, plasma, route not given): 59200 ± 6810 ng·h/mL | Tmax ([3]; Table 6, plasma, route not stated in table (s.c. 1 mg kg-1 / i.v. 0.3 mg kg-1 per FIG. 3)): 2.33 ± 1.16 h | Cmax ([3]; mouse, in vivo): 4710 ± 659 ng/mL | Vd ([3]; mouse, in vivo): 0.18 ± 0.05 L/kg | clearance ([3]; mouse, in vivo): 0.28 ± 0.04 mL/min/kg | half-life ([3]; mouse, in vivo): 11.6 ± 0.85 h | remaining at 24 h (in vitro [4]; dog): 92% | remaining at 24 h (in vitro [4]; human): 92% | fasted glucose levels [5]: significantly reduce fasted glucose levels | glucose handling (OGTT) versus vehicle [5]: more significant improvements in handling glucose | EC50 (human GIPR [6]; Table 8, read-out: EC50 GIPR): 10 pM | EC50 (human GIPR [6]; unnumbered table, run 02/19, read-out: EC50 GIPR 02/19): 40 pM | EC50 (human GLP-1R [7]; Table 7): 10 pM | EC50 (human GLP-1R [7]; Table 8): 30 pM | body weight, food intake ([8]; 40 μg/kg, FIG. 5A): significantly reduced body weight food intake | fed blood glucose ([8]; day 21, versus PBS, FIG. 5B): significantly lower than compared to PBS-treated DIO mice | body weight ([8]; s.c., FIG. 5A): steady reduction in body weight | fasting blood glucose levels ([8]; s.c., FIG. 5A): steady reduction

Tirzepatide
EC50 (cynomolgous monkey GIPR): 80 pM | effects on glucose tolerance [9]: indistinguishable effects on glucose tolerance | GLP-1 receptor binding versus native hGLP-1 (human GLP-1R [10]): approximately five times lower GLP-1 receptor binding than native hGLP-1 | binding affinity to human GIPR versus hGIP (human GIPR [11]): comparable affinity than that of hGIP
